Test results: ChEMBL document CHEMBL1201862, “PubChem BioAssay data set” (2004)
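Tested at 5 concentrations; 48 h exposure; 96-well plates; endpoints linearly interpolated, else capped at highest concentration. At the GI50, growth is halved.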 Active and inactive are the calls of the source. Cut-off read from the data, not from the text of the source: active = GI50 up to about 1.1 µM and inactive = higher.

How the values were obtained:
Test in all cases: NCI-60 cell line screen, 48 h
NCI-H23 = test system: NCI-H23
DMS-114 = test system: DMS-114
SNB-75 = test system: SNB-75
KM-20L2 = test system: KM-20L2
A498 = test system: A498
XF498 = test system: XF498
PC-3 = test system: PC-3
EKVX = test system: EKVX
RXF 393 = test system: RXF 393
Malme-3M = test system: Malme-3M
NCI-H522 = test system: NCI-H522
SK-OV-3 = test system: SK-OV-3
LOX IMVI = test system: LOX IMVI
NCI-H460 = test system: NCI-H460
OVCAR-3 = test system: OVCAR-3
KM12 = test system: KM12
SF-268 = test system: SF-268
UO-31 = test system: UO-31
ACHN = test system: ACHN
DU-145 = test system: DU-145
786-0 = test system: 786-0
MDA-N = test system: MDA-N
SK-MEL-28 = test system: SK-MEL-28
CCRF-CEM = test system: CCRF-CEM
MDA-MB-435 = test system: MDA-MB-435
OVCAR-8 = test system: OVCAR-8
OVCAR-5 = test system: OVCAR-5
HL-60 = test system: HL-60
SW-620 = test system: SW-620
MCF7 = test system: MCF7
U-251 = test system: U-251
HOP-92 = test system: HOP-92
M19-MEL = test system: M19-MEL
HCT-116 = test system: HCT-116
A549 = test system: A549
HCC 2998 = test system: HCC 2998
SN12C = test system: SN12C
SK-MEL-5 = test system: SK-MEL-5
NCI/ADR-RES = test system: NCI/ADR-RES
M14 = test system: M14
SNB-19 = test system: SNB-19
NCI-H226 = test system: NCI-H226
SR = test system: SR
RPMI-8226 = test system: RPMI-8226
K562 = test system: K562
BT-549 = test system: BT-549
TK-10 = test system: TK-10
HOP-62 = test system: HOP-62
SF-295 = test system: SF-295
MOLT-4 = test system: MOLT-4
SK-MEL-2 = test system: SK-MEL-2
HT-29 = test system: HT-29
UACC-62 = test system: UACC-62
DLD-1 = test system: DLD-1
HCT-15 = test system: HCT-15
UACC-257 = test system: UACC-257
Hs-578T = test system: Hs-578T
HOP-18 = test system: HOP-18
T47D = test system: T47D
SF-539 = test system: SF-539
OVCAR-4 = test system: OVCAR-4
MDA-MB-231 = test system: MDA-MB-231
IGROV-1 = test system: IGROV-1
COLO 205 = test system: COLO 205
CAKI-1 = test system: CAKI-1
SNB-78 = test system: SNB-78
LXFL 529 = test system: LXFL 529
DMS-273 = test system: DMS-273

In the case of `CC(C)(C)N1CC1CNC(=O)C(=O)NCC1CN1C(C)(C)C` (stereo not drawn), the GI50 (NCI-H23) is reported as 2.74 µM (inactive), the GI50 (DMS-114) is reported as 0.603 µM (active) and the GI50 (SNB-75) is reported as 4.32 µM (inactive). The GI50 (KM-20L2) was 1.65 µM (inactive), the GI50 (A498) was 2.68 µM (inactive) and the GI50 (XF498) was 0.526 µM (active). The GI50 (PC-3) was 14.9 µM (inactive), the GI50 (EKVX) was 14.2 µM (inactive) and the GI50 (RXF 393) was 1.67 µM (inactive). The GI50 (Malme-3M) was 3.4 µM (inactive), the GI50 (NCI-H522) was 1.31 µM (inactive) and the GI50 (SK-OV-3) was 3.69 µM (inactive). For the same molecule, the GI50 (LOX IMVI) was 8.24 µM (inactive), the GI50 (NCI-H460) was 1.53 µM (inactive) and the GI50 (OVCAR-3) was 4.62 µM (inactive). The GI50 (KM12) was 4.74 µM (inactive), the GI50 (SF-268) was 3.03 µM (inactive) and the GI50 (UO-31) was 6.61 µM (inactive). For the same molecule, the GI50 (ACHN) was 1.29 µM (inactive), the GI50 (DU-145) was 7.62 µM (inactive) and the GI50 (786-0) was 1.4 µM (inactive). The GI50 (MDA-N) was 25.8 µM (inactive), the GI50 (SK-MEL-28) was 5.42 µM (inactive) and the GI50 (CCRF-CEM) was 0.665 µM (active). For the same molecule, the GI50 (MDA-MB-435) was 38.8 µM (inactive), the GI50 (OVCAR-8) was 1.79 µM (inactive) and the GI50 (OVCAR-5) was 2.62 µM (inactive). For the same molecule, the GI50 (HL-60) was 0.411 µM (active), the GI50 (SW-620) was 3.08 µM (inactive) and the GI50 (MCF7) was 9.31 µM (inactive). For the same molecule, the GI50 (U-251) was 3.05 µM (inactive), the GI50 (HOP-92) was 9.51 µM (inactive) and the GI50 (M19-MEL) was 1.26 µM (inactive). The GI50 (HCT-116) was 3.97 µM (inactive), the GI50 (A549) was 3.93 µM (inactive) and the GI50 (HCC 2998) was 3.16 µM (inactive). For the same molecule, the GI50 (SN12C) was 2.33 µM (inactive), the GI50 (SK-MEL-5) was 16.7 µM (inactive) and the GI50 (NCI/ADR-RES) was 2.55 µM (inactive). For the same molecule, the GI50 (M14) was 3.61 µM (inactive), the GI50 (SNB-19) was 13.7 µM (inactive) and the GI50 (NCI-H226) was 7.83 µM (inactive). The GI50 (SR) was 0.601 µM (active), the GI50 (RPMI-8226) was 5.86 µM (inactive) and the GI50 (K562) was 3.79 µM (inactive). The GI50 (BT-549) was 29.9 µM (inactive), the GI50 (TK-10) was 51.1 µM (inactive) and the GI50 (HOP-62) was 1.31 µM (inactive). For the same molecule, the GI50 (SF-295) was 3.33 µM (inactive), the GI50 (MOLT-4) was 1.57 µM (inactive) and the GI50 (SK-MEL-2) was 5.33 µM (inactive). The GI50 (HT-29) was 2.45 µM (inactive), the GI50 (UACC-62) was 2.18 µM (inactive) and the GI50 (DLD-1) was 0.556 µM (active). For the same molecule, the GI50 (HCT-15) was 3.74 µM, the GI50 (UACC-257) was 5.05 µM (inactive) and the GI50 (Hs-578T) was 91 µM (inactive). For the same molecule, the GI50 (HOP-18) was 1.07 µM (active), the GI50 (T47D) was 22.2 µM (inactive) and the GI50 (SF-539) was 2.94 µM (inactive). For the same molecule, the GI50 (OVCAR-4) was 28.5 µM (inactive), the GI50 (MDA-MB-231) was 63.4 µM (inactive) and the GI50 (IGROV-1) was 5.83 µM (inactive). The GI50 (COLO 205) was 3.79 µM (inactive) and the GI50 (CAKI-1) was 6.31 µM (inactive).

In the case of `CCCCn1/c(=N/C(=S)N(C)C)ss/c1=N\C(=S)N(C)C`, the GI50 (NCI-H23) is reported as > 100 µM (inactive), the GI50 (SNB-75) is reported as > 100 µM (inactive) and the GI50 (KM-20L2) is reported as > 100 µM (inactive). The GI50 (A498) was > 100 µM (inactive), the GI50 (XF498) was > 100 µM (inactive) and the GI50 (EKVX) was > 100 µM (inactive). The GI50 (RXF 393) was > 100 µM (inactive), the GI50 (Malme-3M) was > 100 µM (inactive) and the GI50 (SK-OV-3) was > 100 µM (inactive). For the same molecule, the GI50 (LOX IMVI) was > 100 µM (inactive), the GI50 (NCI-H460) was > 100 µM (inactive) and the GI50 (KM12) was > 100 µM (inactive). The GI50 (SF-268) was > 100 µM (inactive), the GI50 (UO-31) was > 100 µM (inactive) and the GI50 (ACHN) was > 100 µM (inactive). For the same molecule, the GI50 (SNB-78) was > 100 µM (inactive), the GI50 (786-0) was > 100 µM (inactive) and the GI50 (SK-MEL-28) was > 100 µM (inactive). The GI50 (CCRF-CEM) was > 100 µM (inactive), the GI50 (OVCAR-8) was > 100 µM (inactive) and the GI50 (OVCAR-5) was > 100 µM (inactive). The GI50 (HL-60) was > 100 µM (inactive), the GI50 (SW-620) was > 100 µM (inactive) and the GI50 (U-251) was > 100 µM (inactive). For the same molecule, the GI50 (HOP-92) was > 100 µM (inactive), the GI50 (M19-MEL) was > 100 µM (inactive) and the GI50 (HCT-116) was > 100 µM (inactive). The GI50 (A549) was > 100 µM (inactive), the GI50 (HCC 2998) was > 100 µM (inactive) and the GI50 (SN12C) was > 100 µM (inactive). The GI50 (M14) was > 100 µM (inactive), the GI50 (SNB-19) was > 100 µM (inactive) and the GI50 (NCI-H226) was 7.28 µM (inactive). The GI50 (SR) was > 100 µM (inactive), the GI50 (RPMI-8226) was > 100 µM (inactive) and the GI50 (K562) was > 100 µM (inactive). For the same molecule, the GI50 (TK-10) was 6.19 µM (inactive), the GI50 (HOP-62) was > 100 µM (inactive) and the GI50 (SF-295) was > 100 µM (inactive). The GI50 (MOLT-4) was > 100 µM (inactive), the GI50 (SK-MEL-2) was > 100 µM (inactive) and the GI50 (HT-29) was > 100 µM (inactive). For the same molecule, the GI50 (UACC-62) was > 100 µM (inactive), the GI50 (DLD-1) was > 100 µM (inactive) and the GI50 (HCT-15) was > 100 µM. The GI50 (UACC-257) was > 100 µM (inactive), the GI50 (HOP-18) was > 100 µM (inactive) and the GI50 (SF-539) was > 100 µM (inactive). For the same molecule, the GI50 (OVCAR-4) was > 100 µM (inactive), the GI50 (IGROV-1) was > 100 µM (inactive) and the GI50 (LXFL 529) was > 100 µM (inactive). The GI50 (DMS-273) was > 100 µM (inactive) and the GI50 (CAKI-1) was > 100 µM (inactive).

For `Cc1ccc(S(=O)(=O)c2ccc(C)cc2[N+](=O)[O-])c([N+](=O)[O-])c1`, the GI50 (NCI-H23) was > 100 µM (inactive), the GI50 (DMS-114) was > 100 µM (inactive) and the GI50 (SNB-75) was 18.5 µM (inactive). The GI50 (KM-20L2) was > 100 µM (inactive), the GI50 (XF498) was > 100 µM (inactive) and the GI50 (EKVX) was > 100 µM (inactive). The GI50 (RXF 393) was > 100 µM (inactive), the GI50 (Malme-3M) was > 100 µM (inactive) and the GI50 (NCI-H522) was > 100 µM (inactive). For the same molecule, the GI50 (LOX IMVI) was > 100 µM (inactive), the GI50 (NCI-H460) was > 100 µM (inactive) and the GI50 (OVCAR-3) was > 100 µM (inactive). For the same molecule, the GI50 (KM12) was > 100 µM (inactive), the GI50 (SF-268) was > 100 µM (inactive) and the GI50 (UO-31) was > 100 µM (inactive). The GI50 (ACHN) was 44.9 µM (inactive), the GI50 (SNB-78) was > 100 µM (inactive) and the GI50 (786-0) was > 100 µM (inactive). The GI50 (SK-MEL-28) was > 100 µM (inactive), the GI50 (CCRF-CEM) was > 100 µM (inactive) and the GI50 (OVCAR-8) was > 100 µM (inactive). The GI50 (OVCAR-5) was > 100 µM (inactive), the GI50 (SW-620) was > 100 µM (inactive) and the GI50 (U-251) was > 100 µM (inactive). The GI50 (M19-MEL) was > 100 µM (inactive), the GI50 (HCT-116) was > 100 µM (inactive) and the GI50 (A549) was > 100 µM (inactive). The GI50 (HCC 2998) was > 100 µM (inactive), the GI50 (SN12C) was > 100 µM (inactive) and the GI50 (SK-MEL-5) was > 100 µM (inactive). The GI50 (M14) was > 100 µM (inactive), the GI50 (SNB-19) was > 100 µM (inactive) and the GI50 (NCI-H226) was > 100 µM (inactive). For the same molecule, the GI50 (SR) was > 100 µM (inactive), the GI50 (RPMI-8226) was > 100 µM (inactive) and the GI50 (K562) was > 100 µM (inactive). The GI50 (TK-10) was > 100 µM (inactive), the GI50 (HOP-62) was > 100 µM (inactive) and the GI50 (SF-295) was > 100 µM (inactive). For the same molecule, the GI50 (MOLT-4) was > 10 µM (inactive), the GI50 (SK-MEL-2) was > 100 µM (inactive) and the GI50 (HT-29) was > 100 µM (inactive). The GI50 (UACC-62) was > 100 µM (inactive), the GI50 (HCT-15) was > 100 µM and the GI50 (SF-539) was > 100 µM (inactive). The GI50 (OVCAR-4) was 89.9 µM (inactive), the GI50 (IGROV-1) was > 100 µM (inactive) and the GI50 (LXFL 529) was > 100 µM (inactive). For the same molecule, the GI50 (COLO 205) was > 100 µM (inactive) and the GI50 (DMS-273) was > 100 µM (inactive).
